Source: patent publication US12624024B2, “EP2 antagonist compounds” (Reservoir Neuroscience, Inc., priority 2021, dated 2026)

Each compound was assayed against T1, EP2 receptor (Homo sapiens, UniProt P43116) (assay: EP2 Potency Assay (cAMP TR-FRET, CHO-K1 cells transfected with EP2 receptor, PGE2 at EC80)). Details: CHO-K1 cells expressing EP2, prostaglandin E2 at EC80, read-out: EP2 Potency (IC50 category).
T1 construct: expressed in transfected cells; host or cells: CHO-K1 cells (ATCC), transient transfection with FuGENE 6
T1 sequence (P43116 whole entry): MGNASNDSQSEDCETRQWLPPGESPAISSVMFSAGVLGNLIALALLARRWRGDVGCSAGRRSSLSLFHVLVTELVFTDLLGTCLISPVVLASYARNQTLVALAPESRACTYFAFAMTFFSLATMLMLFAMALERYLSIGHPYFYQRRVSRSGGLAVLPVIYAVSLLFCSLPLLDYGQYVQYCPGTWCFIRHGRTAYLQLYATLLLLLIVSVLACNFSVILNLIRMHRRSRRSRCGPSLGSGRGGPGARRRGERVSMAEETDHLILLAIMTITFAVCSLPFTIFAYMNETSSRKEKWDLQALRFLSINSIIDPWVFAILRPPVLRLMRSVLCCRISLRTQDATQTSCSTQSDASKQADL
Type: cell-based
Description: Compound potency was measured using a cAMP TR-FRET assay.
After 6 hours incubation, the cell media was replaced with F12 medium supplemented with 10% FBS and 100 U/ml Pen-Strep. 24 hours after transfection, cells were harvested and seeded at a density of 3000 cells/well in a 384 well plate to perform the cAMP assay, using the LANCE Ultra cAMP assay kit (PerkinElmer).
Plates were then centrifuged at 1000 rpm for 1 min, agitated at 600 rpm at R.T. for 2 min, and incubated at 25° C. for 5 min. The reference agonist, prostaglandin E2 (MCE), was added to each well at the appropriate concentration to reach its EC80 value. Plates were then centrifuged at 1000 rpm for 1 min, agitated at 600 rpm at R.T. for 2 min, and incubated at 25° C. for 30 min.
A dose-response curve was prepared by plotting percent inhibition for each compound concentration, and then IC50 was calculated by fitting a curve to the plotted values and extrapolating the IC50 concentration.

| Structure (SMILES) | IC50 [µM] |
| --- | --- |
| O=c1ncc(CN2CCOc3c(Cl)cc(-c4cccc5nccn45)cc3C2)c[nH]1 [Compound 74] | 1 to 5 |
| O=c1ncc(CN2CCOc3c(Cl)cc(-c4ncc5ccccn45)cc3C2)c[nH]1 [Compound 75] | 0.5 to 1 |
| O=c1ncc(CN2CCOc3c(Cl)cc(-n4ccc5nccnc54)cc3C2)c[nH]1 [Compound 76, 5-[(9-chloro-7-{pyrrolo[2,3-b]pyrazin-5-yl}-3,5-dihydro-2H-1,4-benzoxazepin-4-yl)methyl]-1H-pyrimidin-2-one trifluoroacetic acid] | > 5 |
| O=c1ncc(CN2CCOc3c(Cl)cc(-n4ccc5cncnc54)cc3C2)c[nH]1 [Compound 77] | > 5 |
| O=c1ncc(CN2CCOc3c(Cl)cc(N4CCc5cc(F)ccc54)cc3C2)c[nH]1 [Compound 78] | 0.1 to 0.5 |
| O=c1ncc(CN2CCOc3c(Cl)cc(N4CCc5cc(Cl)ccc54)cc3C2)c[nH]1 [Compound 79] | 0.1 to 0.5 |
| O=c1ncc(CN2CCOc3c(Cl)cc(N4CCCc5cc(F)ccc54)cc3C2)c[nH]1 [Compound 80] | 1 to 5 |
| O=c1ncc(CN2CCOc3c(Cl)cc(N4CCOc5cc(F)ccc54)cc3C2)c[nH]1 [Compound 81] | 1 to 5 |
| O=c1ncc(CN2CCOc3c(Cl)cc(-c4cccc5ccccc45)cc3C2)c[nH]1 [Compound 82] | 1 to 5 |
| O=c1ncc(CN2CCOc3c(Cl)cc(-c4cccc5c4CCCC5)cc3C2)c[nH]1 [Compound 83] | > 5 |
| O=c1ncc(CN2CCOc3c(Cl)cc(-c4coc5ccccc45)cc3C2)c[nH]1 [Compound 84] | 0.1 to 0.5 |
| O=c1ncc(CN2CCOc3c(Cl)cc(-c4cccc5c4OCCO5)cc3C2)c[nH]1 [Compound 85] | > 5 |
| Fc1ccc2c(ccn2-c2cc(Cl)c3c(c2)CN(Cc2cc[nH]c2)CCO3)c1 [Compound 86] | > 5 |
| Fc1ccc2c(ccn2-c2cc(Cl)c3c(c2)CN(Cc2ccc[nH]2)CCO3)c1 [Compound 87] | > 5 |
| CC(C)(C)OC(=O)n1cccc1CN1CCOc2c(Cl)cc(-n3ccc4cc(F)ccc43)cc2C1 [Compound 88] | > 5 |
| Fc1ccc2c(ccn2-c2cc(Cl)c3c(c2)CN(Cc2ccco2)CCO3)c1 [Compound 89] | > 5 |
| Fc1ccc2c(ccn2-c2cc(Cl)c3c(c2)CN(Cc2ccoc2)CCO3)c1 [Compound 90] | > 5 |
| Fc1ccc2c(ccn2-c2cc(Cl)c3c(c2)CN(Cc2cccs2)CCO3)c1 [Compound 91] | > 5 |
| Fc1ccc2c(ccn2-c2cc(Cl)c3c(c2)CN(Cc2ccsc2)CCO3)c1 [Compound 92] | > 5 |
| Fc1ccc2c(ccn2-c2cc(Cl)c3c(c2)CN(Cc2cnco2)CCO3)c1 [Compound 93, 9-chloro-7-(5-fluoro-1H-indol-1-yl)-4-(oxazol-5-ylmethyl)-2,3,4,5-tetrahydrobenzo[f][1,4]oxazepine] | 0.5 to 1 |
| Fc1ccc2c(ccn2-c2cc(Cl)c3c(c2)CN(Cc2ccno2)CCO3)c1 [Compound 94] | 1 to 5 |
| Fc1ccc2c(ccn2-c2cc(Cl)c3c(c2)CN(Cc2cocn2)CCO3)c1 [Compound 95] | > 5 |
| Fc1ccc2c(ccn2-c2cc(Cl)c3c(c2)CN(Cc2cnsc2)CCO3)c1 [Compound 96] | 1 to 5 |
| Fc1ccc2c(ccn2-c2cc(Cl)c3c(c2)CN(Cc2ccsn2)CCO3)c1 [Compound 97] | > 5 |
| Fc1ccc2c(ccn2-c2cc(Cl)c3c(c2)CN(Cc2cncs2)CCO3)c1 [Compound 99] | 0.5 to 1 |
| Fc1ccc2c(ccn2-c2cc(Cl)c3c(c2)CN(Cc2cscn2)CCO3)c1 [Compound 100, 9-chloro-7-(5-fluoroindol-1-yl)-4-(1,3-thiazol-4-ylmethyl)-3,5-dihydro-2H-1,4-benzoxazepine] | > 5 |

The next lines start with the values.

| IC50 [µM] | Structure (SMILES) |
| --- | --- |
| > 5 | Fc1ccc2c(ccn2-c2cc(Cl)c3c(c2)CN(Cc2cc[nH]n2)CCO3)c1 [Compound 101] |
| > 5 | Cn1ccc(CN2CCOc3c(Cl)cc(-n4ccc5cc(F)ccc54)cc3C2)n1 [Compound 102] |
| 1 to 5 | Fc1ccc2c(ccn2-c2cc(Cl)c3c(c2)CN(Cc2cn[nH]c2)CCO3)c1 [Compound 103, 4-((1H-pyrazol-4-yl)methyl)-9-chloro-7-(5-fluoro-1H-indol-1-yl)-2,3,4,5-tetrahydrobenzo[f][1,4]oxazepane] |
| > 5 | CC(C)(C)OC(=O)n1cc(CN2CCOc3c(Cl)cc(-n4ccc5cc(F)ccc54)cc3C2)cn1 [Compound 104] |
| > 5 | COc1n[nH]cc1CN1CCOc2c(Cl)cc(-n3ccc4cc(F)ccc43)cc2C1 [Compound 105, 9-chloro-7-(5-fluoroindol-1-yl)-4-[(3-methoxy-1H-pyrazol-4-yl)methyl]-3,5-dihydro-2H-1,4-benzoxazepine] |
| > 5 | Fc1ccc2c(ccn2-c2cc(Cl)c3c(c2)CN(Cc2cnc[nH]2)CCO3)c1 [Compound 107] |
| 1 to 5 | Fc1ccc2c(ccn2-c2cc(Cl)c3c(c2)CN(Cc2cn[nH]n2)CCO3)c1 [Compound 108, 9-chloro-7-(5-fluoroindol-1-yl)-4-(2H-1,2,3-triazol-4-ylmethyl)-3,5-dihydro-2H-1,4-benzoxazepine] |
| > 5 | Fc1ccc2c(ccn2-c2cc(Cl)c3c(c2)CN(Cc2nnc[nH]2)CCO3)c1 [Compound 109, 9-chloro-7-(5-fluoroindol-1-yl)-4-(4H-1,2,4-triazol-3-ylmethyl)-3,5-dihydro-2H-1,4-benzoxazepine] |
| > 5 | Fc1ccc2c(ccn2-c2cc(Cl)c3c(c2)CN(Cc2ncon2)CCO3)c1 [Compound 110] |
| 1 to 5 | Fc1ccc2c(ccn2-c2cc(Cl)c3c(c2)CN(Cc2nnco2)CCO3)c1 [Compound 111, 9-chloro-7-(5-fluoroindol-1-yl)-4-(1,3,4-oxadiazol-2-ylmethyl)-3,5-dihydro-2H-1,4-benzoxazepine] |
| 1 to 5 | Fc1ccc2c(ccn2-c2cc(Cl)c3c(c2)CN(Cc2nncs2)CCO3)c1 [Compound 112] |
| 1 to 5 | Fc1ccc2c(ccn2-c2cc(Cl)c3c(c2)CN(Cc2cnsn2)CCO3)c1 [Compound 113] |
| > 5 | Fc1ccc2c(ccn2-c2cc(Cl)c3c(c2)CN(Cc2nsc(Cl)n2)CCO3)c1 [Compound 115, 9-chloro-4-[(5-chloro-1,2,4-thiadiazol-3-yl)methyl]-7-(5-fluoroindol-1-yl)-3,5-dihydro-2H-1,4-benzoxazepine] |
| > 5 | Nc1nc(CN2CCOc3c(Cl)cc(-n4ccc5cc(F)ccc54)cc3C2)ns1 [Compound 117, 3-{[9-chloro-7-(5-fluoroindol-1-yl)-3,5-dihydro-2H-1,4-benzoxazepin-4-yl]methyl}-1,2,4-thiadiazol-5-amine] |
| > 5 | Fc1ccc2c(ccn2-c2cc(Cl)c3c(c2)CN(Cc2nn[nH]n2)CCO3)c1 [Compound 118, 9-chloro-7-(5-fluoroindol-1-yl)-4-(2H-1,2,3,4-tetrazol-5-ylmethyl)-3,5-dihydro-2H-1,4-benzoxazepine] |
| > 5 | Oc1ccccc1CN1CCOc2c(Cl)cc(-n3ccc4cc(F)ccc43)cc2C1 [Compound 119] |
| > 5 | Oc1cccc(CN2CCOc3c(Cl)cc(-n4ccc5cc(F)ccc54)cc3C2)c1 [Compound 120] |
| > 5 | Oc1ccc(CN2CCOc3c(Cl)cc(-n4ccc5cc(F)ccc54)cc3C2)cc1 [Compound 121] |
| > 5 | Fc1ccc2c(ccn2-c2cc(Cl)c3c(c2)CN(Cc2ccccc2C(F)F)CCO3)c1 [Compound 122, 9-chloro-4-(2-(difluoromethyl)benzyl)-7-(5-fluoro-1H-indol-1-yl)-2,3,4,5-tetrahydrobenzo[f][1,4]oxazepane] |
| > 5 | Fc1ccc2c(ccn2-c2cc(Cl)c3c(c2)CN(Cc2cccc(C(F)F)c2)CCO3)c1 [Compound 123] |
| > 5 | Fc1ccc2c(ccn2-c2cc(Cl)c3c(c2)CN(Cc2ccc(C(F)F)cc2)CCO3)c1 [Compound 124] |
| 1 to 5 | NC(=O)[C@H]1CC[C@@H](CN2CCOc3c(Cl)cc(-n4ccc5cc(F)ccc54)cc3C2)CC1 [Compound 125] |
| 0.5 to 1 | NC(=O)[C@H]1CC[C@H](CN2CCOc3c(Cl)cc(-n4ccc5cc(F)ccc54)cc3C2)CC1 [Compound 126] |
| 0.5 to 1 | CNC(=O)[C@H]1CC[C@H](CN2CCOc3c(Cl)cc(-n4ccc5cc(F)ccc54)cc3C2)CC1 [Compound 127, trans-4-{[9-chloro-7-(5-fluoroindol-1-yl)-3,5-dihydro-2H-1,4-benzoxazepin-4-yl]methyl}-N-methylcyclohexane-1-carboxamide] |
| 1 to 5 | CNC(=O)[C@H]1CC[C@@H](CN2CCOc3c(Cl)cc(-n4ccc5cc(F)ccc54)cc3C2)CC1 [Compound 128, cis-4-{[9-chloro-7-(5-fluoroindol-1-yl)-3,5-dihydro-2H-1,4-benzoxazepin-4-yl]methyl}-N-methylcyclohexane-1-carboxamide] |
| 1 to 5 | CN(C)C(=O)[C@H]1CC[C@@H](CN2CCOc3c(Cl)cc(-n4ccc5cc(F)ccc54)cc3C2)CC1 [Compound 129] |
| 1 to 5 | CN(C)C(=O)[C@H]1CC[C@H](CN2CCOc3c(Cl)cc(-n4ccc5cc(F)ccc54)cc3C2)CC1 [Compound 130] |
| 0.5 to 1 | O=C(O)[C@H]1CC[C@H](CN2CCOc3c(Cl)cc(-n4ccc5cc(F)ccc54)cc3C2)CC1 [Compound 131] |
| 1 to 5 | O=C(O)[C@H]1CC[C@@H](CN2CCOc3c(Cl)cc(-n4ccc5cc(F)ccc54)cc3C2)CC1 [Compound 132, cis-4-{[9-chloro-7-(5-fluoroindol-1-yl)-3,5-dihydro-2H-1,4-benzoxazepin-4-yl]methyl}cyclohexane-1-carboxylic acid] |
| > 5 | COC(=O)[C@H]1CC[C@H](CN2CCOc3c(Cl)cc(-n4ccc5cc(F)ccc54)cc3C2)CC1 [Compound 133] |
